# Patent US8785488B2 (Exelixis Patent Company LLC, priority 2009, dated 2014)
# pEC50: −log10 of the molar value.
# Biological target: T1, human TGR5 (h-TGR5) (Homo sapiens, UniProt Q8TDU6)
# T1 construct: expressed in transfected cells
# T1 sequence (Q8TDU6 1-330): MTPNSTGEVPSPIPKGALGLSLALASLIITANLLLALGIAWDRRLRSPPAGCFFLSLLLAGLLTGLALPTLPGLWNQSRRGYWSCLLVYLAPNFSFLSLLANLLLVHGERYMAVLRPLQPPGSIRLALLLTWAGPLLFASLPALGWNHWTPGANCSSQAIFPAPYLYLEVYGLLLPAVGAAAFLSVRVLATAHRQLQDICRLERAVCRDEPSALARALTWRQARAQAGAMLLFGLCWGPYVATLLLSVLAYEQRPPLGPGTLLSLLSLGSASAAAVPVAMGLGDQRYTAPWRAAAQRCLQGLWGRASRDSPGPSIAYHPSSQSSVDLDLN
# Assay: TGR5/CRE-Luciferiase Assay (HEK 293 hTGR5/CRE-Luc cells)
# Assay type: cell-based
# Details: h-TGR5 CRE-Luc EC50, Table 1; read-out: CRE-Luc (EC50)
# In short: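 HEK293 cells stably carrying hTGR5 and a CRE-luciferase reporter were exposed to serially diluted compounds (diluted in DMEM with 5% DMSO) for 6 h. Cells were then lysed in luciferase buffer, luminescence was read, and EC50 values were derived from dose-response curves.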
row,Compound,pEC50
1,COc1ccc(C(C)(C)c2cnc(SCc3ccc(F)c(C(=O)O)c3)n2-c2ccc(F)cc2)cc1Cl [5-({[5-{1-[3-chloro-4-(methyloxy)phenyl]-1-methylethyl}-1-(4-fluorophenyl)-1H-imidazol-2-yl]thio}methyl)-2-fluorobenzoic acid],6.00 to 7.00
2,"CC(C)(c1ccc2c(c1)OCO2)c1cnc(SCc2ccc(F)cc2Cl)n1-c1ccc(F)cc1 [5-[1-(1,3-benzodioxol-5-yl)-1-methylethyl]-2-{[(2-chloro-4-fluorophenyl)methyl]thio}-1-(4-fluorophenyl)-1H-imidazole]",6.00 to 7.00
3,"CC(C)(c1ccc2c(c1)OCO2)c1cnc(SCc2c(F)cccc2Cl)n1-c1ccc(F)cc1 [5-[1-(1,3-benzodioxol-5-yl)-1-methylethyl]-2-{[(2-chloro-6-fluorophenyl)methyl]thio}-1-(4-fluorophenyl)-1H-imidazole]",> 7.00
4,"CC(C)(c1ccc(Cl)c(Cl)c1)c1cnc(-c2ccc(F)cc2)n1-c1ccc(F)cc1 [5-[1-(3,4-dichlorophenyl)-1-methylethyl]-1,2-bis(4-fluorophenyl)-1H-imidazole]",6.00 to 7.00
5,"CC(C)(c1ccc(Cl)c(Cl)c1)c1cnc(S(=O)(=O)Cc2ccc(F)c(C(F)(F)F)c2)n1-c1ccc(F)cc1 [5-[1-(3,4-dichlorophenyl)-1-methylethyl]-1-(4-fluorophenyl)-2-({[4-fluoro-3-(trifluoromethyl)phenyl]methyl}sulfonyl)-1H-imidazole]",6.00 to 7.00
6,"CC(C)(c1ccc(Cl)c(Cl)c1)c1cnc(SCc2c(F)cc(F)cc2F)n1-c1ccc(F)cc1 [5-[1-(3,4-dichlorophenyl)-1-methylethyl]-1-(4-fluorophenyl)-2-{[(2,4,6-trifluorophenyl)methyl]thio}-1H-imidazole]",> 7.00
7,"CC(C)(c1ccc(Cl)c(Cl)c1)c1cnc(S(=O)(=O)N[C@H](CO)c2ccccc2)n1-c1ccc(F)cc1 [5-[1-(3,4-dichlorophenyl)-1-methylethyl]-1-(4-fluorophenyl)-N-[(1S)-2-hydroxy-1-phenylethyl]-1H-imidazole-2-sulfonamide]",5.00 to 6.00
8,"CC(C)(c1ccc(Cl)c(Cl)c1)c1cnc(S(=O)(=O)NCc2ccc(C(F)(F)F)cc2F)n1-c1ccc(F)cc1 [5-[1-(3,4-dichlorophenyl)-1-methylethyl]-1-(4-fluorophenyl)-N-{[2-fluoro-4-(trifluoromethyl)phenyl]methyl}-1H-imidazole-2-sulfonamide]",6.00 to 7.00
9,"CC(C)(c1ccc(Cl)c(Cl)c1)c1cnc(SCc2ccc(F)cc2S(C)(=O)=O)n1-c1ccc(F)cc1 [5-[1-(3,4-dichlorophenyl)-1-methylethyl]-2-({[4-fluoro-2-(methylsulfonyl)phenyl]methyl}thio)-1-(4-fluorophenyl)-1H-imidazole]",6.00 to 7.00
10,"CC(Oc1ccc(Cl)c(Cl)c1)c1ncc(C(C)(C)c2ccc(Cl)c(Cl)c2)n1-c1ccc(F)cc1 (stereo not shown) [5-[1-(3,4-dichlorophenyl)-1-methylethyl]-2-{1-[(3,4-dichlorophenyl)oxy]ethyl}-1-(4-fluorophenyl)-1H-imidazole]",5.00 to 6.00
11,"CC(C)(c1ccc(Cl)c(Cl)c1)c1cnc(S(=O)(=O)Cc2ccc(Cl)cc2Cl)n1-c1ccc(F)cc1 [5-[1-(3,4-dichlorophenyl)-1-methylethyl]-2-{[(2,4-dichlorophenyl)methyl]sulfonyl}-1-(4-fluorophenyl)-1H-imidazole]",5.00 to 6.00
12,"CC(C)(c1ccc(Cl)c(Cl)c1)c1cnc(S(=O)(=O)Cc2cc(Cl)ccc2Cl)n1-c1ccc(F)cc1 [5-[1-(3,4-dichlorophenyl)-1-methylethyl]-2-{[(2,5-dichlorophenyl)methyl]sulfonyl}-1-(4-fluorophenyl)-1H-imidazole]",6.00 to 7.00
13,"CC(C)(c1ccc(Cl)c(Cl)c1)c1cnc(S(=O)(=O)Cc2c(Cl)cccc2Cl)n1-c1ccc(F)cc1 [5-[1-(3,4-dichlorophenyl)-1-methylethyl]-2-{[(2,6-dichlorophenyl)methyl]sulfonyl}-1-(4-fluorophenyl)-1H-imidazole]",6.00 to 7.00
14,"CC(C)(c1ccc(Cl)c(Cl)c1)c1cnc(SCc2c(Cl)cccc2Cl)n1-c1ccc(F)cc1 [5-[1-(3,4-dichlorophenyl)-1-methylethyl]-2-{[(2,6-dichlorophenyl)methyl]thio}-1-(4-fluorophenyl)-1H-imidazole]",6.00 to 7.00
15,"CC(C)(c1ccc(Cl)c(Cl)c1)c1cnc(S(=O)(=O)Cc2ccc(Cl)c(Cl)c2)n1-c1ccc(F)cc1 [5-[1-(3,4-dichlorophenyl)-1-methylethyl]-2-{[(3,4-dichlorophenyl)methyl]sulfonyl}-1-(4-fluorophenyl)-1H-imidazole]",5.00 to 6.00
16,"CC(C)(c1ccc(Cl)c(Cl)c1)c1cnc(CSc2ccc(Cl)c(Cl)c2)n1-c1ccc(F)cc1 [5-[1-(3,4-dichlorophenyl)-1-methylethyl]-2-{[(3,4-dichlorophenyl)thio]methyl}-1-(4-fluorophenyl)-1H-imidazole]",6.00 to 7.00

row,Compound,pEC50
1,"CC(C)(c1ccc(Cl)c(Cl)c1)c1cnc(S(=O)(=O)Cc2ccc(F)c(F)c2)n1-c1ccc(F)cc1 [5-[1-(3,4-dichlorophenyl)-1-methylethyl]-2-{[(3,4-difluorophenyl)methyl]sulfonyl}-1-(4-fluorophenyl)-1H-imidazole]",6.00 to 7.00
2,CC(C)(c1ccc(Cl)c(F)c1)c1cnc(SCc2c(F)cccc2Cl)n1-c1ccc(F)cc1 [5-[1-(4-chloro-3-fluorophenyl)-1-methylethyl]-2-{[(2-chloro-6-fluorophenyl)methyl]thio}-1-(4-fluorophenyl)-1H-imidazole],> 7.00
3,"COc1ccc(-c2cnc(SCc3ccc(F)cc3Cl)n2-c2ccc(F)cc2)cc1OC [5-[3,4-bis(methyloxy)phenyl]-2-{[(2-chloro-4-fluorophenyl)methyl]thio}-1-(4-fluorophenyl)-1H-imidazole]",5.00 to 6.00
4,"COc1ccc(-c2cnc(SCc3c(F)cccc3Cl)n2-c2ccc(F)cc2)cc1OC [5-[3,4-bis(methyloxy)phenyl]-2-{[(2-chloro-6-fluorophenyl)methyl]thio}-1-(4-fluorophenyl)-1H-imidazole]",5.00 to 6.00
5,"COc1ccc(C(C)(C)c2cnc(SCc3c(F)cc(-c4nnn[nH]4)cc3F)n2-c2ccc(F)cc2)cc1Cl [5-[4-({[5-{1-[3-chloro-4-(methyloxy)phenyl]-1-methylethyl}-1-(4-fluorophenyl)-1H-imidazol-2-yl]thio}methyl)-3,5-difluorophenyl]-1H-tetrazole]",> 7.00
6,"CC(C)(c1ccc(Cl)c(Cl)c1)c1cnc(SCc2ccc(OCCCO)c(C#N)c2)n1-c1ccc(F)cc1 [5-[({5-[1-(3,4-dichlorophenyl)-1-methylethyl]-1-(4-fluorophenyl)-1H-imidazol-2-yl}thio)methyl]-2-[(3-hydroxypropyl)oxy]benzonitrile]",6.00 to 7.00
7,"CC(C)(c1ccc(Cl)c(Cl)c1)c1cnc(SCc2ccc(F)c(C(=O)NCC(F)(F)F)c2)n1-c1ccc(F)cc1 [5-[({5-[1-(3,4-dichlorophenyl)-1-methylethyl]-1-(4-fluorophenyl)-1H-imidazol-2-yl}thio)methyl]-2-fluoro-N-(2,2,2-trifluoroethyl)benzamide]",6.00 to 7.00
8,"CC(C)(O)CNC(=O)c1cc(CSc2ncc(C(C)(C)c3ccc(Cl)c(Cl)c3)n2-c2ccc(F)cc2)ccc1F [5-[({5-[1-(3,4-dichlorophenyl)-1-methylethyl]-1-(4-fluorophenyl)-1H-imidazol-2-yl}thio)methyl]-2-fluoro-N-(2-hydroxy-2-methylpropyl)benzamide]",6.00 to 7.00
9,"CC(C)(c1ccc(Cl)c(Cl)c1)c1cnc(SCc2ccc(F)c(C(=O)NCCN3CCOCC3)c2)n1-c1ccc(F)cc1 [5-[({5-[1-(3,4-dichlorophenyl)-1-methylethyl]-1-(4-fluorophenyl)-1H-imidazol-2-yl}thio)methyl]-2-fluoro-N-(2-morpholin-4-ylethyl)benzamide]",6.00 to 7.00
10,"CC(C)(c1ccc(Cl)c(Cl)c1)c1cnc(SCc2ccc(F)c(C(=O)NCCc3c[nH]cn3)c2)n1-c1ccc(F)cc1 [5-[({5-[1-(3,4-dichlorophenyl)-1-methylethyl]-1-(4-fluorophenyl)-1H-imidazol-2-yl}thio)methyl]-2-fluoro-N-[2-(1H-imidazol-4-yl)ethyl]benzamide]",6.00 to 7.00
11,"COCCNC(=O)c1cc(CSc2ncc(C(C)(C)c3ccc(Cl)c(Cl)c3)n2-c2ccc(F)cc2)ccc1F [5-[({5-[1-(3,4-dichlorophenyl)-1-methylethyl]-1-(4-fluorophenyl)-1H-imidazol-2-yl}thio)methyl]-2-fluoro-N-[2-(methyloxy)ethyl]benzamide]",6.00 to 7.00
12,"CC(C)(c1ccc(Cl)c(Cl)c1)c1cnc(SCc2ccc(F)c(C#N)c2)n1-c1ccc(F)cc1 [5-[({5-[1-(3,4-dichlorophenyl)-1-methylethyl]-1-(4-fluorophenyl)-1H-imidazol-2-yl}thio)methyl]-2-fluorobenzonitrile]",6.00 to 7.00
13,"CCN(CC)CCOc1ccc(CSc2ncc(C(C)(C)c3ccc(Cl)c(Cl)c3)n2-c2ccc(F)cc2)cc1S(N)(=O)=O [5-[({5-[1-(3,4-dichlorophenyl)-1-methylethyl]-1-(4-fluorophenyl)-1H-imidazol-2-yl}thio)methyl]-2-{[2-(diethylamino)ethyl]oxy}benzenesulfonamide]",6.00 to 7.00
14,"CC(C)(c1ccc(F)c(F)c1)c1cnc(SCc2ccc(F)c(C(=O)O)c2)n1-c1ccc(F)cc1 [5-[({5-[1-(3,4-difluorophenyl)-1-methylethyl]-1-(4-fluorophenyl)-1H-imidazol-2-yl}thio)methyl]-2-fluorobenzoic acid]",6.00 to 7.00
15,"CC(C)(c1ccc(Cl)c(Cl)c1)c1cnc(COc2ccc(Cl)cn2)n1-c1ccc(F)cc1 [5-chloro-2-[({5-[1-(3,4-dichlorophenyl)-1-methylethyl]-1-(4-fluorophenyl)-1H-imidazol-2-yl}methyl)oxy]pyridine]",6.00 to 7.00
